Tests used:
Experiment in all cases: Broader kinase panel (PerkinElmer)
Type in all cases: biochemical
Conditions in all cases: 100 nM; read-out: Average Percent Inhibition
ABL1(Y253F) = biological target: T1, ABL1(Y253F) (Homo sapiens, UniProt P00519, Y253F)
T1 construct: purchased In-house HTRF panel (56 kinases) and PerkinElmer (161-kinase panel)
Description: (§1) […]. […] […].

Abl (H396P) = biological target: T2, Abl (H396P) (Homo sapiens, UniProt P00519, H396P)
T2 construct: purchased In-house HTRF panel (56 kinases) and PerkinElmer (161-kinase panel)
Description: as §1

Arg = biological target: T3, Arg (Homo sapiens, UniProt P42684)
T3 construct: purchased In-house HTRF panel (56 kinases) and PerkinElmer (161-kinase panel)
Description: as §1

AurB = biological target: T4, AurB (Homo sapiens, UniProt Q96GD4)
T4 construct: purchased In-house HTRF panel (56 kinases) and PerkinElmer (161-kinase panel)
Description: as §1

BLK = biological target: T5, BLK (Homo sapiens, UniProt P51451)
T5 construct: purchased In-house HTRF panel (56 kinases) and PerkinElmer (161-kinase panel)
Description: as §1

BRSK1 = biological target: T6, BRSK1 (Homo sapiens, UniProt Q8TDC3)
T6 construct: purchased In-house HTRF panel (56 kinases) and PerkinElmer (161-kinase panel)
Description: as §1

BRSK2 = biological target: T7, BRSK2 (Homo sapiens, UniProt Q8IWQ3)
T7 construct: purchased In-house HTRF panel (56 kinases) and PerkinElmer (161-kinase panel)
Description: as §1

CDK1/Cycline B1 = biological target: T8, CDK1/Cycline B1 (Homo sapiens, UniProt P06493)
T8 construct: purchased In-house HTRF panel (56 kinases) and PerkinElmer (161-kinase panel)
Description: as §1

CDK5/p25 = biological target: T9, CDK5/p25 (Homo sapiens, UniProt Q00535)
T9 construct: purchased In-house HTRF panel (56 kinases) and PerkinElmer (161-kinase panel)
Description: as §1

Ca MK2a = biological target: T10, Ca MK2a (Homo sapiens, UniProt Q9UQM7)
T10 construct: purchased In-house HTRF panel (56 kinases) and PerkinElmer (161-kinase panel)
Description: as §1

Ca MKII_beta = biological target: T11, Ca MKII_beta (Homo sapiens, UniProt Q13554)
T11 construct: purchased In-house HTRF panel (56 kinases) and PerkinElmer (161-kinase panel)
Description: as §1

DDR2 = biological target: T12, DDR2 (Homo sapiens, UniProt Q16832)
T12 construct: purchased In-house HTRF panel (56 kinases) and PerkinElmer (161-kinase panel)
Description: as §1

DYRK1B = biological target: T13, DYRK1B (Homo sapiens, UniProt Q9Y463)
T13 construct: purchased In-house HTRF panel (56 kinases) and PerkinElmer (161-kinase panel)
Description: as §1

DYRK1a = biological target: T14, DYRK1a (Homo sapiens, UniProt Q13627)
T14 construct: purchased In-house HTRF panel (56 kinases) and PerkinElmer (161-kinase panel)
Description: as §1

DYRK4 = biological target: T15, DYRK4 (Homo sapiens, UniProt Q9NR20)
T15 construct: purchased In-house HTRF panel (56 kinases) and PerkinElmer (161-kinase panel)
Description: as §1

EPHA1 = biological target: T16, EPHA1 (Homo sapiens, UniProt P21709)
T16 construct: purchased In-house HTRF panel (56 kinases) and PerkinElmer (161-kinase panel)
Description: as §1

Erk2 = biological target: T17, Erk2 (Homo sapiens, UniProt P28482)
T17 construct: purchased In-house HTRF panel (56 kinases) and PerkinElmer (161-kinase panel)
Description: as §1

FGFR3 = biological target: T18, FGFR3 (Homo sapiens, UniProt P22607)
T18 construct: purchased In-house HTRF panel (56 kinases) and PerkinElmer (161-kinase panel)
Description: as §1

FRK = biological target: T19, FRK (Homo sapiens, UniProt P42685)
T19 construct: purchased In-house HTRF panel (56 kinases) and PerkinElmer (161-kinase panel)
Description: as §1

FYN = biological target: T20, FYN (Homo sapiens, UniProt P06241)
T20 construct: purchased In-house HTRF panel (56 kinases) and PerkinElmer (161-kinase panel)
Description: as §1

Fer = biological target: T21, Fer (Homo sapiens, UniProt P16591)
T21 construct: purchased In-house HTRF panel (56 kinases) and PerkinElmer (161-kinase panel)
Description: as §1

Hck = biological target: T22, Hck (Homo sapiens, UniProt P08631)
T22 construct: purchased In-house HTRF panel (56 kinases) and PerkinElmer (161-kinase panel)
Description: as §1

IKBKE (IKK epsilon) = biological target: T23, IKBKE (IKK epsilon) (Homo sapiens, UniProt Q14164)
T23 construct: purchased In-house HTRF panel (56 kinases) and PerkinElmer (161-kinase panel)
Description: as §1

MARK1 = biological target: T24, MARK1 (Homo sapiens, UniProt Q9P0L2)
T24 construct: purchased In-house HTRF panel (56 kinases) and PerkinElmer (161-kinase panel)
Description: as §1

MET = biological target: T25, MET (Homo sapiens, UniProt P08581)
T25 construct: purchased In-house HTRF panel (56 kinases) and PerkinElmer (161-kinase panel)
Description: as §1

MINK = MINK (Homo sapiens, UniProt Q8N4C8)
Description: as §1

MST3 (STK24) = biological target: T26, MST3 (STK24) (Homo sapiens, UniProt Q9Y6E0)
T26 construct: purchased In-house HTRF panel (56 kinases) and PerkinElmer (161-kinase panel)
Description: as §1

PDGFR BETA = biological target: T27, PDGFR BETA (Homo sapiens, UniProt P09619)
T27 construct: purchased In-house HTRF panel (56 kinases) and PerkinElmer (161-kinase panel)
Description: as §1

PDGFR-alpha (V561D) = biological target: T28, PDGFR-alpha (V561D) (Homo sapiens, UniProt P16234, V561D)
T28 construct: purchased In-house HTRF panel (56 kinases) and PerkinElmer (161-kinase panel)
Description: as §1

PIM3 = biological target: T29, PIM3 (Homo sapiens, UniProt Q86V86)
T29 construct: purchased In-house HTRF panel (56 kinases) and PerkinElmer (161-kinase panel)
Description: as §1

PRKCI (PKC-iota) = biological target: T30, PRKCI (PKC-iota) (Homo sapiens, UniProt P41743)
T30 construct: purchased In-house HTRF panel (56 kinases) and PerkinElmer (161-kinase panel)
Description: as §1

PRKX = biological target: T31, PRKX (Homo sapiens, UniProt P51817)
T31 construct: purchased In-house HTRF panel (56 kinases) and PerkinElmer (161-kinase panel)
Description: as §1

PYK2 = biological target: T32, PYK2 (Homo sapiens, UniProt Q14289)
T32 construct: purchased In-house HTRF panel (56 kinases) and PerkinElmer (161-kinase panel)
Description: as §1

ROCK2 = biological target: T33, ROCK2 (Homo sapiens, UniProt O75116)
T33 construct: purchased In-house HTRF panel (56 kinases) and PerkinElmer (161-kinase panel)
Description: as §1

RSK1 = biological target: T34, RSK1 (Homo sapiens, UniProt Q15418)
T34 construct: purchased In-house HTRF panel (56 kinases) and PerkinElmer (161-kinase panel)
Description: as §1

SGK2 = biological target: T35, SGK2 (Homo sapiens, UniProt Q9HBY8)
T35 construct: purchased In-house HTRF panel (56 kinases) and PerkinElmer (161-kinase panel)
Description: as §1

SRM (SRMS) = biological target: T36, SRM (SRMS) (Homo sapiens, UniProt Q9H3Y6)
T36 construct: purchased In-house HTRF panel (56 kinases) and PerkinElmer (161-kinase panel)
Description: as §1

SYK = SYK (Homo sapiens, UniProt P43405)
Description: as §1

TSSK1 = biological target: T37, TSSK1 (Homo sapiens, UniProt Q9BXA7)
T37 construct: purchased In-house HTRF panel (56 kinases) and PerkinElmer (161-kinase panel)
Description: as §1

c-Raf = biological target: T38, c-Raf (Homo sapiens, UniProt P04049)
T38 construct: purchased In-house HTRF panel (56 kinases) and PerkinElmer (161-kinase panel)
Description: as §1

p38a = biological target: T39, p38a (Homo sapiens, UniProt Q16539)
T39 construct: purchased In-house HTRF panel (56 kinases) and PerkinElmer (161-kinase panel)
Description: as §1

p38alpha/SAPK2a (T106M) = biological target: T40, p38alpha/SAPK2a (T106M) (Homo sapiens, UniProt Q16539, T106M)
T40 construct: purchased In-house HTRF panel (56 kinases) and PerkinElmer (161-kinase panel)
Description: as §1

T37 sequence (Q9BXA7 whole entry): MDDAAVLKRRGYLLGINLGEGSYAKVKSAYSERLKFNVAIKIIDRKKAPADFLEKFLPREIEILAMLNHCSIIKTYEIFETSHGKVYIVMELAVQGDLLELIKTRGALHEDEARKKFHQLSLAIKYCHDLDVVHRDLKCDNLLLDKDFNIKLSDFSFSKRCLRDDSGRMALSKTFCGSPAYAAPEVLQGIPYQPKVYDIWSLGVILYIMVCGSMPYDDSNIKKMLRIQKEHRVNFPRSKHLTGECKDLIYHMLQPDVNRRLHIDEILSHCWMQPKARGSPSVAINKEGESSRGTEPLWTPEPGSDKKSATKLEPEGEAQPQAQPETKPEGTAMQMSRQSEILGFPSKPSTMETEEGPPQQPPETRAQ
T17 sequence (P28482 whole entry): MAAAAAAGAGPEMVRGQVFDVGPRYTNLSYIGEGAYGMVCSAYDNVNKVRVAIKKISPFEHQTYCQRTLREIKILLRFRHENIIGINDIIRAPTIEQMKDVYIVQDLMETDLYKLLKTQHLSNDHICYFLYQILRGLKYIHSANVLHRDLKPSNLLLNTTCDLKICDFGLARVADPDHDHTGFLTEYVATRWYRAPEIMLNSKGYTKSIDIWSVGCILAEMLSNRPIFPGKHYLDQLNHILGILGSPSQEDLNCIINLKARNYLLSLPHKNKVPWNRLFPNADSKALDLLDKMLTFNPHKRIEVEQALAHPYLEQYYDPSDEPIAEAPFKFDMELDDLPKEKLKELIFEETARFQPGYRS
T10 sequence (Q9UQM7 whole entry): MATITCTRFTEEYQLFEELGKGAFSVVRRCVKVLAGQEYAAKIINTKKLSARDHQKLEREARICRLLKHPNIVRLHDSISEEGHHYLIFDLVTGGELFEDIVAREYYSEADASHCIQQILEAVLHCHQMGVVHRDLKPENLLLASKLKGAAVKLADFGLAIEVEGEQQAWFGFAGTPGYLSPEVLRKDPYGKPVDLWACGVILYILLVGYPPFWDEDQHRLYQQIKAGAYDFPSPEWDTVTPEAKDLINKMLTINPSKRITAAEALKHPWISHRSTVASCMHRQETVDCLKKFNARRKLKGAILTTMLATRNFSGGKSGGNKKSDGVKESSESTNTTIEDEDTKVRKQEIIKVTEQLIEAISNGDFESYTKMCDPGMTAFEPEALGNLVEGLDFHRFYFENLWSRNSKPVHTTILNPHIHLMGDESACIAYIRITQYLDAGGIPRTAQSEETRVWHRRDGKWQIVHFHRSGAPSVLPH
T5 sequence (P51451 whole entry): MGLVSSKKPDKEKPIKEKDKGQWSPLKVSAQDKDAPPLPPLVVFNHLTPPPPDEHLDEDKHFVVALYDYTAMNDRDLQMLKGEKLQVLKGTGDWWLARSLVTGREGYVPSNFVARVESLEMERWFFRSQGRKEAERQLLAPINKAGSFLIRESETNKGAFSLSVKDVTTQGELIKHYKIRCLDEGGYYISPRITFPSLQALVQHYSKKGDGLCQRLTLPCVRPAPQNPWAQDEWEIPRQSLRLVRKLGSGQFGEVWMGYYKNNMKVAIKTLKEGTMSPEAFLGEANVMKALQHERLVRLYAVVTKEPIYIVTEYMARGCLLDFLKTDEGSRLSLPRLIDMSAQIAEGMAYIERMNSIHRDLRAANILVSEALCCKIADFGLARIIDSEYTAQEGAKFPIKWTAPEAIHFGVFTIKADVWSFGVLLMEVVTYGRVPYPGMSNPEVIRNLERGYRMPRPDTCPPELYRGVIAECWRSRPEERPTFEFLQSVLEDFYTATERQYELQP
T16 sequence (P21709 26-976): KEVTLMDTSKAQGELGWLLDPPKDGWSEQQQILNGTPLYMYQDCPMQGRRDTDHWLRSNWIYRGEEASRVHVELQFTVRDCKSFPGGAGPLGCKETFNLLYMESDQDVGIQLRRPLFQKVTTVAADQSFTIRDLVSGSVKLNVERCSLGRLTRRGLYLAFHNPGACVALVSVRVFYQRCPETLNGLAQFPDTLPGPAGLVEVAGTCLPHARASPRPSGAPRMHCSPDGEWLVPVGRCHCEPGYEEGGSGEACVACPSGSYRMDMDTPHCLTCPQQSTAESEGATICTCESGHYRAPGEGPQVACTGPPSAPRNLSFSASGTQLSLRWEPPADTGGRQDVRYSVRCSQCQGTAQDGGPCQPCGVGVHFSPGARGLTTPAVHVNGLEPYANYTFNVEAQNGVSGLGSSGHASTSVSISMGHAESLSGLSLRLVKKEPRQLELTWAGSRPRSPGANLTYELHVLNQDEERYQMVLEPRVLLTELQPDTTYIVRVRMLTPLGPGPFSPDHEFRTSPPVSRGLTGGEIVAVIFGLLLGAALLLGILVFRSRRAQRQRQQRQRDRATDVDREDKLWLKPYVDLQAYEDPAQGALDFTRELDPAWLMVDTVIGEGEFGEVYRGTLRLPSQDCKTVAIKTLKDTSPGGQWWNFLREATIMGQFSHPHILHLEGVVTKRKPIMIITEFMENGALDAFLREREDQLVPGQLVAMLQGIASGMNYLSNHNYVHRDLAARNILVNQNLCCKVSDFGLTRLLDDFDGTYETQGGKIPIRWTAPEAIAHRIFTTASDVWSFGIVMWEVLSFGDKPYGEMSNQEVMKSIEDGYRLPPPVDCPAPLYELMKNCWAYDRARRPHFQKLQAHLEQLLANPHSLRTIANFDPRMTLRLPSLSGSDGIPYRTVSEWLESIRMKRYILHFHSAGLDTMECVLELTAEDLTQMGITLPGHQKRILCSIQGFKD
T32 sequence (Q14289 whole entry): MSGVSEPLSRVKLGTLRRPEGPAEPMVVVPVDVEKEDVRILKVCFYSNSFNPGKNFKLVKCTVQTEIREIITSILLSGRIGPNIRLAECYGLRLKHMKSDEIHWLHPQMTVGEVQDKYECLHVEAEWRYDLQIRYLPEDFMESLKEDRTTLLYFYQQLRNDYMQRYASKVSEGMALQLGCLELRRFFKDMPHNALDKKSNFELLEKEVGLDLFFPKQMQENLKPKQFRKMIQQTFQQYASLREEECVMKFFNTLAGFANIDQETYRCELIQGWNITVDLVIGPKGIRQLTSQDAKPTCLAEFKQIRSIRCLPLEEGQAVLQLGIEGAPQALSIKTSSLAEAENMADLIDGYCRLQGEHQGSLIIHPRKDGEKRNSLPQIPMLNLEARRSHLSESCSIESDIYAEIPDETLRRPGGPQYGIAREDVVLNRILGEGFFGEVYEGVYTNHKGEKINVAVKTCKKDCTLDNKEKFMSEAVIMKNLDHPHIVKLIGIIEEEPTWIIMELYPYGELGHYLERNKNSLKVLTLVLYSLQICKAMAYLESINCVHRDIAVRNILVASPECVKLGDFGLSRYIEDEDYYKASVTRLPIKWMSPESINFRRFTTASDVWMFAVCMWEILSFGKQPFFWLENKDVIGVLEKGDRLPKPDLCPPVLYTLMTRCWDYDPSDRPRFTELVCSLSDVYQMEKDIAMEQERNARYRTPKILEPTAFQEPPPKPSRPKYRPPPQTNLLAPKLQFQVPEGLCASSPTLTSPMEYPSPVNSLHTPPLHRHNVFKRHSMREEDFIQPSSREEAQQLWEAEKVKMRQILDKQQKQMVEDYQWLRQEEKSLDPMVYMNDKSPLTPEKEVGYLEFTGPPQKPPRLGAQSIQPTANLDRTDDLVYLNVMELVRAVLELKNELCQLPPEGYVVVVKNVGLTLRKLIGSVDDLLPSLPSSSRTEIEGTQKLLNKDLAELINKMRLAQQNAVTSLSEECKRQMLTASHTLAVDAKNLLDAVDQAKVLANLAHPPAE
T4 sequence (Q96GD4 whole entry): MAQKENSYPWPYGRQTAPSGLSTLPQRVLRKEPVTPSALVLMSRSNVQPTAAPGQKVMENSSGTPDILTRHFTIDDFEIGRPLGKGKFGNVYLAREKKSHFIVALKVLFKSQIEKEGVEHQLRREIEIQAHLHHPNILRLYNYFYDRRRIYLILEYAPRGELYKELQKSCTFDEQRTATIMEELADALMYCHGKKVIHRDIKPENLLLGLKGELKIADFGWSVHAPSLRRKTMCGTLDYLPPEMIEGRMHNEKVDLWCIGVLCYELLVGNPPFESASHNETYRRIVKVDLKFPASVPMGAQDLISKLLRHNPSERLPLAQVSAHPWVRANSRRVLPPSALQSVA
T24 sequence (Q9P0L2 whole entry): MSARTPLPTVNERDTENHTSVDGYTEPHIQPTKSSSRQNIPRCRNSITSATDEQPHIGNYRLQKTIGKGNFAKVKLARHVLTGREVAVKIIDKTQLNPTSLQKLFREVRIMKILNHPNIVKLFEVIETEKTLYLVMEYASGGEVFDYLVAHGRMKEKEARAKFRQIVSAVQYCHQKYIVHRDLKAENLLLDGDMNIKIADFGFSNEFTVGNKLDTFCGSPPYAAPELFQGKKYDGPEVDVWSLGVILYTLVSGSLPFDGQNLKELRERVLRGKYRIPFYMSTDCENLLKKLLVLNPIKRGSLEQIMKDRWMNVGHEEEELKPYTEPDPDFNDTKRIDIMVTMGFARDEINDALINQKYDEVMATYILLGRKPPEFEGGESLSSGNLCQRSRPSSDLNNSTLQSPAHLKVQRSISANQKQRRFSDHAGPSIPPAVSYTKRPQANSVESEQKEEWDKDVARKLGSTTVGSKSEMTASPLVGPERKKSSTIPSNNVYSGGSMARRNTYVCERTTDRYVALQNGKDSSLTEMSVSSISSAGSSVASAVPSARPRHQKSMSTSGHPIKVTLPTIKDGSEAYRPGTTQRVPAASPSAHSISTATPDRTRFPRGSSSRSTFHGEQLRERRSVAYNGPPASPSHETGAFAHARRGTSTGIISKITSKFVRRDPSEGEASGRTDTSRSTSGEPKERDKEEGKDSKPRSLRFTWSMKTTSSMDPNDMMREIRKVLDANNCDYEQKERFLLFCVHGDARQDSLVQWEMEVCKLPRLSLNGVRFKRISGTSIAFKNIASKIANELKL

With CCN1C(=O)N(c2c(F)c(OC)cc(OC)c2F)Cc2cnc3[nH]c(CN4CCOCC4)cc3c21 [INCB054828, pemigatinib] the inhibition at 0.1 µM (ABL1(Y253F)) was 2%, the inhibition at 0.1 µM (Abl (H396P)) was -1% and the inhibition at 0.1 µM (Arg) was -4%. The inhibition at 0.1 µM (AurB) was 11%, the inhibition at 0.1 µM (BLK) was -10% and the inhibition at 0.1 µM (BRSK1) was -4%. For the same molecule, the inhibition at 0.1 µM (BRSK2) was -2%, the inhibition at 0.1 µM (CDK1/Cycline B1) was 5% and the inhibition at 0.1 µM (CDK5/p25) was -4%. It also gave an inhibition at 0.1 µM (Ca MK2a) of 2%, an inhibition at 0.1 µM (Ca MKII_beta) of -9% and an inhibition at 0.1 µM (DDR2) of -1%. The inhibition at 0.1 µM (DYRK1B) was 7%, the inhibition at 0.1 µM (DYRK1a) was -2% and the inhibition at 0.1 µM (DYRK4) was -4%. The inhibition at 0.1 µM (EPHA1) was 2%, the inhibition at 0.1 µM (Erk2) was 3% and the inhibition at 0.1 µM (FGFR3) was 98%. The inhibition at 0.1 µM (FRK) was 0%, the inhibition at 0.1 µM (FYN) was -1% and the inhibition at 0.1 µM (Fer) was 17%. For the same molecule, the inhibition at 0.1 µM (Hck) was -3%, the inhibition at 0.1 µM (IKBKE (IKK epsilon)) was -2% and the inhibition at 0.1 µM (MARK1) was 10%. For the same molecule, the inhibition at 0.1 µM (MET) was -2%, the inhibition at 0.1 µM (MINK) was 2% and the inhibition at 0.1 µM (MST3 (STK24)) was 7%. It also gave an inhibition at 0.1 µM (PDGFR BETA) of 6%, an inhibition at 0.1 µM (PDGFR-alpha (V561D)) of 1% and an inhibition at 0.1 µM (PIM3) of -4%. The inhibition at 0.1 µM (PRKCI (PKC-iota)) was 3%, the inhibition at 0.1 µM (PRKX) was 0% and the inhibition at 0.1 µM (PYK2) was -1%. The inhibition at 0.1 µM (ROCK2) was 5%, the inhibition at 0.1 µM (RSK1) was -2% and the inhibition at 0.1 µM (SGK2) was -2%. It also gave an inhibition at 0.1 µM (SRM (SRMS)) of 1%, an inhibition at 0.1 µM (SYK) of -2% and an inhibition at 0.1 µM (TSSK1) of -3%. The inhibition at 0.1 µM (c-Raf) was 3%, the inhibition at 0.1 µM (p38a) was 1% and the inhibition at 0.1 µM (p38alpha/SAPK2a (T106M)) was -3%.

— PMC7313537 (PLoS ONE, 2020)
